Data as given in patent US11471468B2, “Methods and systems for conditioning of particulate crystalline materials” (Pearl Therapeutics, Inc., priority 2013, dated 2022).

Columns and labels:
Format in all cases: physicochemical
[1] = Amorphous content by (dynamic) vapor sorption; conditions: for % Amorphous Content Initial: micronized GP batches; for Calculated Amorphous Content, Collector 1 / Calculated Amorphous Content, Collector 2: conditioned GP, dynamic vapor sorption, n=2 replicates per collector
Excerpt: (§1) A portion of the micronized GP was also conditioned using an in-process conditioning system wherein nitrogen conditioning gas was supplied to the in-process conditioning system and was controlled for flow rate, temperature and humidity. The conditioning gas was humidified through a droplet evaporation chamber after which it was directed to a mixing zone. In the mixing zone, the conditioning gas was mixed with the jet-milled aerosol comprising the micronized GP. The aerosol then entered a conditioning zone where annealing of the micronized GP occurred. The particle residence time through the conditioning zone was adjusted by means of the conditioning zone chamber geometry and/or the gas flow rate through the conditioning zone chamber. After passing through the conditioning zone, the micronized GP particles reached the cyclone-collection zone where the solid particles were separated from the gas phase and transported to a collection vessel. Upon completion of the batch processing, the collector was disengaged and transferred to a glove box for sampling. The sampling occurred in a <5% relative humidity environment. Samples were then analyzed for particle size distribution and amorphous content.
The amorphous content by vapor sorption and particle morphology for both batches were also assessed. FIG. 9 provides the ethanol vapor sorption isotherm at 25° C. for both batches of micronized budesonide.
The amorphous content by vapor sorption and particle morphology for both batches were also assessed. FIG. 11 provides the ethanol vapor sorption isotherm at 25° C. for both batches of micronized fluticasone.
All batches were also analyzed for amorphous content by dynamic vapor sorption using n=2 replicates per collector.
The amorphous content by vapor sorption and particle morphology for both batches of micronized sucrose were also assessed. FIG. 13 provides the water vapor sorption isotherm at 25° C. for both batches of micronized sucrose.

[2] = Particle size distribution by laser diffraction (Sympatec) after processing; conditions: for X10: micronized GP, sampled immediately after processing; for D10 / D50 / D90: Compound A, PSD
[3] = as above; conditions: for X50 / X90: micronized GP, sampled immediately after processing; for D10 / D50 / D90: micronized/annealed GP, scale-up ~1 kg batches, mean of n=3 replicates per collector; for Physical stability after micronization judged from size distribution: laser diffraction, Tables 4 and 5
Excerpt: When referred to herein, the term “optical diameter” indicates the size of a particle as measured using a laser diffraction particle size analyzer equipped with a dry powder dispenser (e.g., Sympatec GmbH, Clausthal-Zellerfeld, Germany).
as §1
Both micronized sucrose batches were analyzed for particle size distribution by Sympatec laser diffraction.

[4] = Residual solvent content by GC analysis
Experimental: Residual solvent content of the material from different batches was also analyzed. […] Residual solvent is partially removed using primary (ethanol) and secondary (water) conditioning.
Compound A (IUPAC: 7-[(1R)-2-[2-[2-fluoro-5-[[4-(2-isopropylthiazole-4-carbonyl)-1-oxa-4,9-diazaspiro[5.5]undecan-9-yl]methyl]phenyl]ethylamino]-1-hydroxy-ethyl]-4-hydroxy-3H-1,3-benzothiazol-2-one; di[[(1S,4R)-7,7-dimethyl-2-oxo-norbornan-1-yl]methanesulfonic acid] salt) was received with a 3.8% ethanol residual content. This material had been previously micronized and conditioned according to the present description to reduce the presence of isopropyl (IPA) and ethanol (EtOH) by solvent exchange/removal. The material was exposed to another conditioning gas that included water vapor, and was mixed with the conditioning gas in a conditioning zone for approximately 1.5 hours.

[5] = listed as Batch A - Collector 1
[6] = listed as Batch A - Collector 2
[7] = micronized Compound A of Example 7, before/after about […] with water-vapor conditioning gas
[8] = Compound A batches of Example 6
[9] = Compound A batches of Example 6, residual solvent
[10] = listed as Batch B - Collector 1
[11] = listed as Batch B - Collector 2
[12] = Compound A batches of Example 6, residual solvent, listed as Compound A, 30° C./55% RS, 30° C./70% RH
[13] = Compound A batches of Example 6, residual solvent, listed as Compound A, Raw (un-milled)
[14] = listed as Batch C - Collector 1
[15] = listed as Batch C - Collector 2

C[N+]1(C)CCC(OC(=O)C(O)(c2ccccc2)C2CCCC2)C1 (centres unmarked) [Batch 2G, Glycopyrrolate]
% Amorphous Content Initial [1]: 2.3%

C[N+]1(C)CCC(OC(=O)C(O)(c2ccccc2)C2CCCC2)C1 (centres unmarked) [Micronized GP, Standard Jet Milling, Glycopyrrolate]
X10 [2]: 0.5 μm
X50 [3]: 1.4 μm
X90 [3]: 3.0 μm

C[N+]1(C)CCC(OC(=O)C(O)(c2ccccc2)C2CCCC2)C1 (single isomer, unassigned) [Batch A, Glycopyrrolate]
D10 [3, 5]: 0.52 μm
D50 [3, 5]: 1.48 μm
D90 [3, 5]: 3.02 μm
D10 [3, 6]: 0.52 μm
D50 [3, 6]: 1.47 μm
D90 [3, 6]: 2.99 μm
Calculated Amorphous Content, Collector 1 [1]: 2.65%
Calculated Amorphous Content, Collector 2 [1]: 2.35%

7-[(1R)-2-[2-[2-fluoro-5-[[4-(2-isopropylthiazole-4-carbonyl)-1-oxa-4,9-diazaspiro[5.5]undecan-9-yl]methyl]phenyl]ethylamino]-1-hydroxy-ethyl]-4-hydroxy-3H-1,3-benzothiazol-2-one; di[[(1S,4R)-7,7-dimethyl-2-oxo-norbornan-1-yl]methanesulfonic acid] salt [Micronized Compound A, 30° C./70% RH (water)]
% EtOH (w/w) [4, 7]: 0.1% (w/w)
% IPA (w/w) [4, 7]: 0.0% (w/w)
% Water [4, 7]: 3.6%

C[N+]1(C)CCC(OC(=O)C(O)(c2ccccc2)C2CCCC2)C1 (centres unmarked) [Batch 2E, Glycopyrrolate]
% Amorphous Content Initial [1]: 2.6%

C[N+]1(C)CCC(OC(=O)C(O)(c2ccccc2)C2CCCC2)C1 (centres unmarked) [Batch 2D, Glycopyrrolate]
% Amorphous Content Initial [1]: 0.9%

7-[(1R)-2-[2-[2-fluoro-5-[[4-(2-isopropylthiazole-4-carbonyl)-1-oxa-4,9-diazaspiro[5.5]undecan-9-yl]methyl]phenyl]ethylamino]-1-hydroxy-ethyl]-4-hydroxy-3H-1,3-benzothiazol-2-one; di[[(1S,4R)-7,7-dimethyl-2-oxo-norbornan-1-yl]methanesulfonic acid] salt [Compound A]
Ethanol residual content as received ([4]; Compound A as received, Example 7): 3.8%
Residual isopropyl alcohol solvent after manufacture ([4]; Compound A before micronization, Example 6): ~5%

C[N+]1(C)CCC(OC(=O)C(O)(c2ccccc2)C2CCCC2)C1 (centres unmarked) [Batch 2C, Glycopyrrolate]
% Amorphous Content Initial [1]: 0.9%

7-[(1R)-2-[2-[2-fluoro-5-[[4-(2-isopropylthiazole-4-carbonyl)-1-oxa-4,9-diazaspiro[5.5]undecan-9-yl]methyl]phenyl]ethylamino]-1-hydroxy-ethyl]-4-hydroxy-3H-1,3-benzothiazol-2-one; di[[(1S,4R)-7,7-dimethyl-2-oxo-norbornan-1-yl]methanesulfonic acid] salt [Compound A, 30° C./70% RH]
D10 [2]: 0.6 μm
D50 [2]: 1.6 μm
D90 [2]: 3.1 μm
% Water [4, 8]: 3.4%
% EtOH (w/w) [4, 9]: 0.1% (w/w)
% IPA (w/w) [4, 9]: 3.6% (w/w)

C[N+]1(C)CCC(OC(=O)C(O)(c2ccccc2)C2CCCC2)C1 (single isomer, unassigned) [Batch B, Glycopyrrolate]
D10 [3, 10]: 0.52 μm
D50 [3, 10]: 1.47 μm
D90 [3, 10]: 3.02 μm
D10 [3, 11]: 0.52 μm
D50 [3, 11]: 1.46 μm
D90 [3, 11]: 2.99 μm
Calculated Amorphous Content, Collector 1 [1]: 2.65%
Calculated Amorphous Content, Collector 2 [1]: 2.40%

C[N+]1(C)CCC(OC(=O)C(O)(c2ccccc2)C2CCCC2)C1 (centres unmarked) [Batch 1A, Glycopyrrolate]
% Amorphous Content Initial [1]: 17.9%

7-[(1R)-2-[2-[2-fluoro-5-[[4-(2-isopropylthiazole-4-carbonyl)-1-oxa-4,9-diazaspiro[5.5]undecan-9-yl]methyl]phenyl]ethylamino]-1-hydroxy-ethyl]-4-hydroxy-3H-1,3-benzothiazol-2-one; di[[(1S,4R)-7,7-dimethyl-2-oxo-norbornan-1-yl]methanesulfonic acid] salt [Compound A, 30° C./55% RS (ethanol); 30° C./70% RH (water)]
D10 [2]: 0.6 μm
D50 [2]: 1.7 μm
D90 [2]: 3.2 μm
% EtOH (w/w) [4, 12]: 1.2% (w/w)
% IPA (w/w) [4, 12]: 2.1% (w/w)
% Water ([4]; Compound A batches of Example 6, listed as Compound A, 30° C./55% RS, 30° C./70% RH): 3.4%

7-[(1R)-2-[2-[2-fluoro-5-[[4-(2-isopropylthiazole-4-carbonyl)-1-oxa-4,9-diazaspiro[5.5]undecan-9-yl]methyl]phenyl]ethylamino]-1-hydroxy-ethyl]-4-hydroxy-3H-1,3-benzothiazol-2-one; di[[(1S,4R)-7,7-dimethyl-2-oxo-norbornan-1-yl]methanesulfonic acid] salt [Compound A, Raw (Un-milled)]
D10 [2]: 1.1 μm
D50 [2]: 3.7 μm
D90 [2]: 16.3 μm
% EtOH (w/w) [4, 13]: 0.0% (w/w)
% IPA (w/w) [4, 13]: 4.7% (w/w)
% Water ([4]; Compound A batches of Example 6, listed as Compound A, Raw (un-milled)): 3.1%

C[N+]1(C)CCC(OC(=O)C(O)(c2ccccc2)C2CCCC2)C1 (centres unmarked) [Micronized GP, In-Process Conditioning, Glycopyrrolate]
X10 [2]: 0.6 μm
X50 [3]: 1.5 μm
X90 [3]: 3.1 μm

C[N+]1(C)CCC(OC(=O)C(O)(c2ccccc2)C2CCCC2)C1 (centres unmarked) [Batch 2B, Glycopyrrolate]
% Amorphous Content Initial [1]: 5.3%

7-[(1R)-2-[2-[2-fluoro-5-[[4-(2-isopropylthiazole-4-carbonyl)-1-oxa-4,9-diazaspiro[5.5]undecan-9-yl]methyl]phenyl]ethylamino]-1-hydroxy-ethyl]-4-hydroxy-3H-1,3-benzothiazol-2-one; di[[(1S,4R)-7,7-dimethyl-2-oxo-norbornan-1-yl]methanesulfonic acid] salt [Compound A, Unannealed]
D10 [2]: 0.6 μm
D50 [2]: 1.6 μm
D90 [2]: 3.1 μm
% Water [4, 8]: 3.0%
% EtOH (w/w) [4, 9]: 0.2% (w/w)
% IPA (w/w) [4, 9]: 3.9% (w/w)

C[N+]1(C)CCC(OC(=O)C(O)(c2ccccc2)C2CCCC2)C1 (single isomer, unassigned) [Batch C, Glycopyrrolate]
D10 [3, 14]: 0.52 μm
D50 [3, 14]: 1.47 μm
D90 [3, 14]: 3.03 μm
D10 [3, 15]: 0.51 μm
D50 [3, 15]: 1.45 μm
D90 [3, 15]: 2.96 μm
Calculated Amorphous Content, Collector 1 [1]: 2.65%
Calculated Amorphous Content, Collector 2 [1]: 2.45%

7-[(1R)-2-[2-[2-fluoro-5-[[4-(2-isopropylthiazole-4-carbonyl)-1-oxa-4,9-diazaspiro[5.5]undecan-9-yl]methyl]phenyl]ethylamino]-1-hydroxy-ethyl]-4-hydroxy-3H-1,3-benzothiazol-2-one; di[[(1S,4R)-7,7-dimethyl-2-oxo-norbornan-1-yl]methanesulfonic acid] salt [Micronized Compound A, As Received]
% EtOH (w/w) [4, 7]: 3.8% (w/w)
% IPA (w/w) [4, 7]: 0.1% (w/w)
% Water [4, 7]: 3.1%

CCCC1O[C@@H]2C[C@H]3[C@@H]4CCC5=CC(=O)C=C[C@]5(C)[C@H]4[C@@H](O)C[C@]3(C)[C@]2(C(=O)CO)O1 (some centres unmarked) [Micronized Budesonide, Batch 2 (annealed)]
Physical stability after micronization judged from size distribution [3]: good physical stability

C[N+]1(C)CCC(OC(=O)C(O)(c2ccccc2)C2CCCC2)C1 (centres unmarked) [Batch 2F, Glycopyrrolate]
% Amorphous Content Initial [1]: 0.9%

CCCC1O[C@@H]2C[C@H]3[C@@H]4CCC5=CC(=O)C=C[C@]5(C)[C@H]4[C@@H](O)C[C@]3(C)[C@]2(C(=O)CO)O1 (some centres unmarked) [Micronized Budesonide, Batch 1 (unannealed)]
Physical stability after micronization judged from size distribution [3]: potential agglomeration
